From US7294755B1 (priority 1997, dated 2007)
“And” between values parts separate entries of the source, which are not always exact repeats. Equal entries are not always repeated.

Key:
[1] = tested on: male germ cells of the testis; assay: Depopulating the recipient testis of male germ cells, histologic analysis; assay type: in vivo, C57BL/6J mice; details: two months after treatment
Experimental: Comparison of Depopulating Treatments. Eight-week-old C57BL/6J mice were allowed to acclimatize for a few days and then were assigned to one of the following three treatment groups. They received: (1) 400 Rad gamma irradiation; (2)4 μg/g body weight of busulfan (1,4-butanediol dimethanesulphonate; Myleran, Glaxo Wellcome); or (3) a combination treatment of busulfan (4 μg/g body wt) followed one week later by 400 Rad of gamma irradiation (“busulfan/400 Rad” treatment). A fourth group of untreated C57BL/6J mice of the same age as the treatment groups was used as a control. There were 24 mice in each treatment group, and 3 mice were sacrificed at each of the following time intervals after treatment: 5 hours, 24 hours, 48 hours, 72 hours, 1 week, 2 weeks, I month and 2 months after treatment. […]
Delivery of an Alkylating Agent to Recipient Vertebrates. The male mice receiving busulfan received a dose of 4 μg busulfan per g body wt. The busulfan was first dissolved 8 mg/mL in 100% dimethyl sulfoxide (DMSO) then, immediately before injection, was diluted 1:1 in phosphate buffered saline, pH 7.4. The mice were injected with the diluted busulfan solution intraperitoneally. Irradiation Treatment of Recipient Vertebrates. For the gamma irradiation treatment, mice were anesthetized with 0.017 mL/g body wt. of 2.5% Avertin. Gamma irradiation was specifically directed to the testis in the following manner. Each mouse was placed in a lead chamber with only the testis and lower abdomen exposed through elliptical holes to the irradiating source (^137Cs Gammacell 40 irradiator [Nordion]). There were six aligned holes in the floor and roof of the chamber through which the gamma radiation passed unobstructed. After irradiation the animals were allowed to recover from the anesthesia on a warm heating pad or water bed until they regained consciousness. Histology. At selected time points, mice from each treatment group were euthanized, and testicular tissues to be examined were fixed in 10% formalin in PBS, pH 7.4, at 4° C. for 24 hours. Small slits in the testis capsule were made to allow penetration of the fixative. Fixed samples were washed four times with PBS, and embedded in paraffin using a Tissue Tek-II tissue processor (MET). Sections of 8 μm thickness were cut, stained with haemotoxylin and eosin (H&E), and mounted with Aquamount (Lerner Laboratories) on glass slides with coverslips. The sections were viewed on a Zeiss or Olympic light microscope with a 40× objective lens (total magnification 400×). Quantitative Histologic Analysis. Quantitative data were collected from the testes of two animals for each of the treatment groups at two months after treatment. (Table 2). For the control group only one mouse was used. The seminiferous tubules in a single section were counted using a 5× objective on a Zeiss light microscope (50× total magnification). Individual seminiferous tubules were examined at 400× total magnification. Seminiferous tubules were considered severely damaged if hardly any cells remained in the tubule, and the tubule consisted of a basement membrane with a single layer of cells, mostly spermatogonia, lying along the basement membrane. Moderately damaged tubules were tubules, in which some of the spermatogenic layers close to the lumen were partially sloughed off. Spermatozoan heads were counted in the tubules and averaged over the total number of tubules counted. Results of Histological Analysis. Obvious histological changes were not seen in the testis until two weeks after treatment. (Data no shown). […] A few Sertoli cell nuclei and spermatogonia were detectable in the periphery along the basement membrane. […] Some spermatids and spermatozoa were seen as well as a few spermatocytes.

male germ cells = assay: In vivo transduction of male germ cells followed by natural matings, transgenic progeny by PCR and Southern blot; set-up: species or system C57/B1/6J mice; details: IP 4 μg/gm body wt before in vivo transduction
[2] = tested on: testicular cells within the seminiferous tubules; assay: In vivo transduction of male germ cells using a viral vector (Example 14); set-up: species or system C57BL/6J mice; details: 4 μg/gm body wt IP, 44 days prior to viral infection
Text: A retroviral vector was used to transduce (genetically alter or modify) male germ cells of mice in vivo. Specifically, a pseudo-typed HIV-derived viral vector (L. Naldini et al., In vivo gene delivery and stable transduction of nondividing cells by a Lentiviral vector, Science 272:263-67 [1996]), was used, as modified by Carlos Lois to express Green Flourescent Protein (GFP) instead of the LacZ reporter gene, under the transcriptional control of the CMV promoter (HR′GFP).
Recipient C57BL/6J mice were treated with busulfan 44 days prior to viral infection. C57BL/6J male mice were injected intraperitoneally with 0.1 ml busulfan at a concentration of 1 mg/ml. The dose was 4 μg busulfan/gm body wt. One pretreated mouse was anesthetized with Avertin (0.017 mls/gm body wt.), and a ventral midline incision was made and the right testis exposed.
The vas efferentia were dissected away from the fat, and ten microlitres of HIV-derived GFP vector, HR′GFP, at a titer of 1×10^9 particles/ml were injected into the seminiferous tubules of the right testis via the vas efferens of a busulfan-treated C57 BL/6J mouse. Injection was done with a quartz glass micropipette attached to a Picospritzer II. The Picospritzer was set at 80 psi and gave 1 second bursts upon manual depression of a foot pedal. […]

[3] = tested on: male germ cells in the testis; details: mice, cited from earlier work
testis germ cells = assay: Busulfan depopulation of testis before microinjection (Example 15); assay type: in vivo, mice; details: IP 4 μg/g body wt.
Experimental: The method of delivery (Winston, R. M. L., Microsurgical reanastomosis of the rabbit oviduct and its functional and pathological sequelae, Brit. J. Obstet. Gynaecol. 82:513-522 ([1975]) of viral particles into a single vas efferens, and thence to the seminiferous tubules, was first optimized in several mice (FIGS. 1a-1d). The mice were treated with busulfan (Myleran: Glaxo Wellcome) 14 days before microsurgery to maximize the chance of viral particles gaining access to spermatogonia, which lie on the basement lamella of the tubules. Busulfan, an alkylating cytotoxic agent, depopulates the testis (Bucci, L. and Meistrich, M., Effects of busulfan on murine spermatogenesis: cytotoxicity, sterility, sperm abnormalities, and dominant lethal mutations, Mut. Res. 176:259-268 [1987]). […] This implies that stem cells remain viable and can repopulate the testis. Stem cell spermatogonia are known to be resistant to insults, often surviving when other germ cell types are destroyed (Huckins, C. & Oakberg, W. F., Morphological and quantitative analysis of spermatogonia in mouse testes using whole mounted seminiferous tubules. II. The irradiated testes, Anat. Rec. 192:529-42 [1978]).

CS(=O)(=O)OCCCCOS(C)(=O)=O [Busulfan, 1,4-butanediol dimethanesulphonate]
Total No. Sperm heads ([1]; in 50 tubules): 957 and 764
Average No. sperm heads/tubule [1]: 19 and 15
depopulation of seminiferous tubules, comparison of treatment groups [1]: damage to the spermatogenic process
Moderately damaged tubules, percent of tubules counted ([1]; one animal per line): 7% and 3%
No. Moderately damaged (seminiferous tubules) ([1]; one animal per line): 5 and 2
No. Severely damaged (seminiferous tubules) ([1]; one animal per line): 1 (1%) and 3
Severely damaged tubules, percent of tubules counted ([1]; one animal per line): 1 (1%) and 10%
effect of pre-treatment on transduction of spermatogonia (male germ cells): enhanced the transduction of spermatogonia
mature spermatozoa in testis [2]: Very few mature spermatozoa were present
depletion of male germ cells ([3]; 13 mg-40 mg/kg body wt.): deplete male germs cells in the testis
duration of azoospermia after treatment ([3]; doses over 30 mg/kg body weight): up to 56 days
elimination of germ cells from the tubules (testis germ cells): many of the spermatocytes, spermatids and spermatozoa were eliminated from the tubules
recovery of testis and fertility (testis germ cells): the testis recovered three to four months afterward and fertility was restored
